“And” between values parts separate entries of the source, which are not always exact repeats. Identical values can stand only once. Like-named read-outs stand apart in the source and are kept apart here.
Columns and labels:
Integrin αvβ6 Receptor [1] = target: T1, Integrin αvβ6 Receptor (Homo sapiens, UniProt P06756+P18564); test: HTRF binding activity to integrin αvβ6 receptor (competition with LAP (TGF-beta 1)); conditions: for specific binding ability to the αvβ6 receptor: αvβ6 compared with αvβ1 and αvβ5
T1 sequence (P06756 31-992 limits assumed): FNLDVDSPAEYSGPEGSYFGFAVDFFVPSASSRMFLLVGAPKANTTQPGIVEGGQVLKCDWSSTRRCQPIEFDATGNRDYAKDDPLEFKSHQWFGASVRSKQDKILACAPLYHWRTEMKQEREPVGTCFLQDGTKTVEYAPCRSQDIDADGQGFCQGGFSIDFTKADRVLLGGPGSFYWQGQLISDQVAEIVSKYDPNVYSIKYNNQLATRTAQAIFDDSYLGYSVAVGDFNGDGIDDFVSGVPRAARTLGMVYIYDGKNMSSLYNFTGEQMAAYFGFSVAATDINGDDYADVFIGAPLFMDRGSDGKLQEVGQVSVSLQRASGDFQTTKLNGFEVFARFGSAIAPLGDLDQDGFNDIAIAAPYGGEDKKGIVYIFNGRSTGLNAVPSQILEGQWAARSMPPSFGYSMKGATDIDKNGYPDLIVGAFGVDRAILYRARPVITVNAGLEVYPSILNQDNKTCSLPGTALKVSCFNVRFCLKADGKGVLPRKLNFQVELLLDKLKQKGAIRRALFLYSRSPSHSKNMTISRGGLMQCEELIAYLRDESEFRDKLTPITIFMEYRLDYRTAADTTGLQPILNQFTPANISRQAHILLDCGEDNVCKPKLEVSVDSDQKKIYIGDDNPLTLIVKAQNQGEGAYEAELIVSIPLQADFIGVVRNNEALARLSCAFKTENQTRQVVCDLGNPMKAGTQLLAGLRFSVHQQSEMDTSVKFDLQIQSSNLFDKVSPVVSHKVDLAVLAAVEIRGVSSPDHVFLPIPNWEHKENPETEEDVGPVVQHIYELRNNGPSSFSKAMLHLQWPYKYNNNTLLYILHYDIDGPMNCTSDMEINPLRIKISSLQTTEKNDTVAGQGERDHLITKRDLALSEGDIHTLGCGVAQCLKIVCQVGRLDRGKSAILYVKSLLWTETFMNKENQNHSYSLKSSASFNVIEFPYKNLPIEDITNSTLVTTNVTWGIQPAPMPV
T1 sequence (P18564 22-707 limits assumed): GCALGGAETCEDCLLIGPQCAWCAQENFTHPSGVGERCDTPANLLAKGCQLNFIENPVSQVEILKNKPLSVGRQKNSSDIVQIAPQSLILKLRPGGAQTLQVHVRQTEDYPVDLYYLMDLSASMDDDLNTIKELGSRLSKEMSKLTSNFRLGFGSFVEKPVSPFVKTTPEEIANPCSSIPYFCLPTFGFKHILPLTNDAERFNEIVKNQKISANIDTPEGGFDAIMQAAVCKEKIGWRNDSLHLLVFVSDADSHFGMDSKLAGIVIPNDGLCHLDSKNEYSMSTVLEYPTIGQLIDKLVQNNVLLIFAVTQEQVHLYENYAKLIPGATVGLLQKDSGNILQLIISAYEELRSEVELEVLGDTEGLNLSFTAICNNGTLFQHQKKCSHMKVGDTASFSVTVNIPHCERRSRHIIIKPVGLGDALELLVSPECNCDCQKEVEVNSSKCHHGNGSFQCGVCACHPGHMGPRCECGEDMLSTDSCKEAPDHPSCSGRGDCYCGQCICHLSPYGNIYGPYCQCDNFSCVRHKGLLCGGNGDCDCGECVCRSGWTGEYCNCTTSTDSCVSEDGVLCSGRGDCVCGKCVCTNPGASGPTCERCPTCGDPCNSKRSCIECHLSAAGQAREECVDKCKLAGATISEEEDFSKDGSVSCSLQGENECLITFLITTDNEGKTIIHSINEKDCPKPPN
Procedure: Main Experimental Reagents and Consumables
Inhibition rate and fit IC50 was calculated using Excel and XL-Fit respectively, formula as follows: Inhibition % = (Max−Signal)/(Max−Min)*100 [formula] Y = Bottom + (Top−Bottom)/(1+(IC50/X)[…]), [formula] Y and X represent %inhibition and compound concentration respectively

Integrin αvβ1 Receptor = Integrin αvβ1 Receptor (Homo sapiens, UniProt P05556+P06756); test: Fluorescence polarization (FP) binding activity to integrin αvβ1 receptor (competition with Cyclo[-RGDy-K(5-FAM)]); conditions: Table 4, different integrin receptors
Chain of Integrin αvβ1 Receptor (P06756 31-992 limits assumed): as the sequence (P06756 31-992 limits assumed) above
Chain of Integrin αvβ1 Receptor (P05556 21-728 limits assumed): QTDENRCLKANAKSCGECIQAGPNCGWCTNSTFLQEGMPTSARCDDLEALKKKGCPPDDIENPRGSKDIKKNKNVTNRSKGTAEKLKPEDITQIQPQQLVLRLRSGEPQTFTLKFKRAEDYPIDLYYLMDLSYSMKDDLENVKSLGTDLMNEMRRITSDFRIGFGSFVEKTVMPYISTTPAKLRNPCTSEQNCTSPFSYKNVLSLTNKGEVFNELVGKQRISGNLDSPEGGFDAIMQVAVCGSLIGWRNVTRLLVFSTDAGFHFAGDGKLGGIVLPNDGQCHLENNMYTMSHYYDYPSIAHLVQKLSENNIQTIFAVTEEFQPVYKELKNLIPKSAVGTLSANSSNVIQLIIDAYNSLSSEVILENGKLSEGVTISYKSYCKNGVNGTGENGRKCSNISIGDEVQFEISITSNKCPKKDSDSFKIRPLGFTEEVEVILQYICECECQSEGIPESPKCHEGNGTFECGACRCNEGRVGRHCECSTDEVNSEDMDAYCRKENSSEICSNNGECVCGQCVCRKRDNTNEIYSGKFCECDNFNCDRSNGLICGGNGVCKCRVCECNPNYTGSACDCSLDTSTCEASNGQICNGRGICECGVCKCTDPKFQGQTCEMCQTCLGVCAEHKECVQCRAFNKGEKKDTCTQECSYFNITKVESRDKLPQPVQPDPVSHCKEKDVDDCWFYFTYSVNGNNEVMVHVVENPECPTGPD

Integrin αvβ5 Receptor = Integrin αvβ5 Receptor (Homo sapiens, UniProt P06756+P18084); test: HTRF binding activity to integrin αvβ5 receptor (competition with Vitronectin)
Chain of Integrin αvβ5 Receptor (P06756 31-992 limits assumed): as the sequence (P06756 31-992 limits assumed) above
Chain of Integrin αvβ5 Receptor (P18084 24-719 limits assumed): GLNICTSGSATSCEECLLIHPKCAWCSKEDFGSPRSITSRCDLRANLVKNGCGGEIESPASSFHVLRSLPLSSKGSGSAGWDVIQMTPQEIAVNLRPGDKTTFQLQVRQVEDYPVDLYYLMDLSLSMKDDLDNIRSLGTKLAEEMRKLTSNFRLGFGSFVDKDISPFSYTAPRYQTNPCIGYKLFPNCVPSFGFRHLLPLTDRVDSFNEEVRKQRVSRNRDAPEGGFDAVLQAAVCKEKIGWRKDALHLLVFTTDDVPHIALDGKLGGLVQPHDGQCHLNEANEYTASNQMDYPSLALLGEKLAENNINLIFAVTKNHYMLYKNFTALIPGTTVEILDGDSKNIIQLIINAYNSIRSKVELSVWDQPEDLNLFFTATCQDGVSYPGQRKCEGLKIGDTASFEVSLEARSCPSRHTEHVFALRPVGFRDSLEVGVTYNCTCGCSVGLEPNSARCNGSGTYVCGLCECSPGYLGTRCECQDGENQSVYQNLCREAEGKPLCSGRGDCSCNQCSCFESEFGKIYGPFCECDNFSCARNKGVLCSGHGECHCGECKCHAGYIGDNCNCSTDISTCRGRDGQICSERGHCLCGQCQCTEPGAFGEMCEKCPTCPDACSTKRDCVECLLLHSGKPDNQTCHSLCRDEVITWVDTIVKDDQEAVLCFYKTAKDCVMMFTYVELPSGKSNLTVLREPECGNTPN
Procedure: B. Evaluation of Compound Binding Activity to Integrin αvβ5 Receptor using Homogeneous Time-Resolved Fluorescence (HTRF) Technology
Compound Preparation: Same as A.
Then 5 µL of integrin receptor protein αvβ5 was added (5 µL of assay buffer was added for negative control), incubated at room temperature for 20 minutes. Next, 5 µL of ligand protein VTN, and 10 µL of the SA-Tb and Anti-His XL665 mixture were added respectively, incubated at room temperature for 1 hour.

Integrin αvβ6 Receptor [2] = target: T1, Integrin αvβ6 Receptor; test: HTRF binding activity to integrin αvβ6 receptor (competition with LAP (TGF-beta 1)); conditions: for Hillslope: fit parameter of the inhibition curve; for Emax: maximum of the inhibition curve, read-out: Max; for IC50: table of 5FAM-labelled compounds
Procedure: Reagent Preparation: Assay buffer was prepared.

[3] = Integrin αvβ6, HTRF, Table 3, several runs, each with Cilengitide and 1 as references, read-out: IC50
[4] = Table 4, different integrin receptors, read-out: IC50 (nM) αvβ6
[5] = IC50 (nM) αvβ5, Table 4, different integrin receptors

| SMILES | IC50 (Integrin αvβ6 Receptor [1]; [3]) | IC50 (Integrin αvβ6 Receptor [1]; [4]) | IC50 (Integrin αvβ1 Receptor) | IC50 (Integrin αvβ5 Receptor; [5]) | Hillslope (Integrin αvβ6 Receptor [2]) | Emax (Integrin αvβ6 Receptor [2]) | IC50 (Integrin αvβ6 Receptor [2]) | also measured |
| --- | --- | --- | --- | --- | --- | --- | --- | --- |
| Cc1ccnc(NCCC2CCN(CC(=O)NC(CC(=O)O)c3ccc(-c4ccc(OCCOCCOCCOCCOCCN=[N+]=[N-])c5ccccc45)cc3)C2=O)c1 (single isomer, unassigned) [Compound 5-P1] | 3.6 nM | 3.6 nM | 753 nM | 83.4 nM | – | – | – | specific binding ability to the αvβ6 receptor (Integrin αvβ6 Receptor [1]): specific binding ability to the αvβ6 receptor |
| Cc1ccnc(NCCC2CCN(CC(=O)NC(CC(=O)O)c3ccc(-c4ccc(OCCOCCOCCOCCOCCN=[N+]=[N-])c5ccccc45)cc3)C2=O)c1 (single isomer, unassigned) [Compound 5-P2] | 3.9 nM | 3.9 nM | 333 nM | 142 nM | – | – | – | specific binding ability to the αvβ6 receptor (Integrin αvβ6 Receptor [1]): specific binding ability to the αvβ6 receptor |
| Cc1nn(-c2cccc(C(CC(=O)O)CN3CC[C@@H](CCc4ccc5c(n4)NCCC5)C3)c2)c(C)c1OCCOCCOCCOCCOCCN=[N+]=[N-] (single isomer, unassigned) [Compound 14-P1] | 9.4 nM | – | – | – | – | – | – | – |
| Cc1nn(-c2cccc(C(CC(=O)O)CN3CC[C@@H](CCc4ccc5c(n4)NCCC5)C3)c2)c(C)c1OCCOCCOCCOCCOCCN=[N+]=[N-] (single isomer, unassigned) [Compound 14-P2] | 3.5 nM | 3.9 nM | 10.3 nM | – | – | – | – | IC50 (Integrin αvβ5 Receptor; read-out: IC50 (nM) αvβ5, Table 4, different integrin receptors): 0.7 nM |
| [N-]=[N+]=NCCOCCOCCOCCOCCOc1cccc([C@H](CC(=O)O)CN2CC[C@@H](CCc3ccc4c(n3)NCCC4)C2)c1 (single isomer, unassigned) [Compound 18-P1] | 3.2 nM | 3.2 nM | 9.1 nM | 0.6 nM | – | – | – | – |
| [N-]=[N+]=NCCOCCOCCOCCOCCOc1ccc([C@H](CC(=O)O)CN2CC[C@@H](CCc3ccc4c(n3)NCCC4)C2)cc1 (single isomer, unassigned) [Compound 20-P1] | 3.7 nM | 3.7 nM | 8.1 nM | 0.7 nM | – | – | – | – |
| CC(C)[C@H]1C(=O)N[C@@H](CCCNC(=N)N)C(=O)NCC(=O)N[C@@H](CC(=O)O)C(=O)N[C@H](Cc2ccccc2)C(=O)N1C [Cilengitide, reference compound] | – | – | – | – | 1.2 | 98.2% | – | – |
| Cc1ccnc(NCCCC(=O)NCC(=O)N[C@@H](CC(=O)O)c2ccc(-c3ccc(OCCOCCOCCOCCOCCN=[N+]=[N-])c4ccccc34)cc2)c1 [Compound 1, reference compound] | 2.5 nM and 2.3 nM | 2.5 nM | 9.7 nM | 3.4 nM | – | – | – | – |
| Cc1ccnc(NCCCC(=O)NCC(=O)N[C@@H](CC(=O)O)c2ccc(-c3ccc(OCCOCCOCCOCCOCCn4cc(COCCOCCNC(=O)CCC(CCC(=O)NCCOCCOCc5cn(CCOCCOCCOCCOCCOc6ccc(-c7ccc([C@H](CC(=O)O)NC(=O)CNC(=O)CCCNc8cc(C)ccn8)cc7)c7ccccc67)nn5)(CCC(=O)NCCOCCOCc5cn(CCOCCOCCOCCOCCOc6ccc(-c7ccc([C@H](CC(=O)O)NC(=O)CNC(=O)CCCNc8cc(C)ccn8)cc7)c7ccccc67)nn5)NC(=O)CCCC(=O)NCCCCCCNC(=O)c5ccc6c(c5)C(=O)OC65c6ccc(O)cc6Oc6cc(O)ccc65)nn4)c4ccccc34)cc2)c1 [Compound 1-3-5FAM] | – | – | – | – | 1.6 | 107% | 2.52 nM | – |
| Cc1ccnc(NCCCC(=O)NCC(=O)N[C@@H](CC(=O)O)c2ccc(-c3ccc(OCCOCCOCCOCCOCCn4cc(CNC(=O)c5ccc6c(c5)C(=O)OC65c6ccc(O)cc6Oc6cc(O)ccc65)nn4)c4ccccc34)cc2)c1 [Compound 1-5FAM] | – | – | – | – | – | 97% | 1.41 nM | – |
| COC(=O)C[C@H](NC(=O)CNC(=O)CCCN(C(=O)OC(C)(C)C)c1cc(C)ccn1)c1ccc(-c2ccc(OCCOCCOCCOCCOCCn3cc(CNC(=O)c4ccc5c(c4)C(=O)OC54c5ccc(O)cc5Oc5cc(O)ccc54)nn3)c3ccccc23)cc1 [Compound 1NG-5FAM] | – | – | – | – | 2.5 | 100% | 41.9 nM | – |
| Cc1ccnc(NCCCC(=O)N2CCN(C(CC(=O)O)c3ccc(-c4ccc(OCCOCCOCCOCCOCCn5cc(CNC(=O)c6ccc7c(c6)C(=O)OC76c7ccc(O)cc7Oc7cc(O)ccc76)nn5)c5ccccc45)cc3)CC2)c1 (stereo not drawn) [Compound 4-5FAM] | – | – | – | – | 1.1 | 100% | – | – |
| Cc1ccnc(NCCC2CCN(CC(=O)N[C@@H](CC(=O)O)c3ccc(-c4ccc(OCCOCCOCCOCCOCCn5cc(CNC(=O)c6ccc7c(c6)C(=O)OC76c7ccc(O)cc7Oc7cc(O)ccc76)nn5)c5ccccc45)cc3)C2=O)c1 (stereo partly drawn) [Compound 5-5FAM] | – | – | – | – | 1.3 | 107% | – | – |
| O=C(O)c1ccc2c(c1)C(=O)OC21c2ccc(O)cc2Oc2cc(O)ccc21 [Compound 5FAM] | – | – | – | – | – | – | – | Hillslope (Integrin αvβ6 Receptor [1]; Integrin αvβ6, HTRF, fit parameter of the inhibition curve): -11.5; Max (Integrin αvβ6 Receptor [1]; Integrin αvβ6, HTRF, maximum of the inhibition curve): 6.3; Min (Integrin αvβ6 Receptor [1]; Integrin αvβ6, HTRF, minimum of the inhibition curve): -2.8; IC50 (Integrin αvβ6 Receptor [1]; Integrin αvβ6, HTRF, table of 5FAM-labelled compounds, read-out: IC50): > 100 nM |
| CNc1cccc(CC(=O)NCC(=O)N[C@@H](CC(=O)O)c2ccc(-c3ccc(OCCOCCOCCOCCOCCn4cc(CNC(=O)c5ccc6c(c5)C(=O)OC65c6ccc(O)cc6Oc6cc(O)ccc65)nn4)c4ccccc34)cc2)n1 [Compound 6-5FAM] | – | – | – | – | 1.2 | 95.8% | 1.6 nM | – |
| CNc1cccc(CCCCC(=O)N[C@@H](CC(=O)O)c2ccc(-c3ccc(OCCOCCOCCOCCOCCn4cc(CNC(=O)c5ccc6c(c5)C(=O)OC65c6ccc(O)cc6Oc6cc(O)ccc65)nn4)c4ccccc34)cc2)n1 [Compound 7-5FAM] | – | – | – | – | 1.2 | 102% | 3.17 nM | – |

Reference: patent EP4786451A1, “COMPOUND TARGETING INTEGRIN AND USE THEREOF IN RNAI AGENT” (YUN HO BIO CO., LTD, priority 2023, dated 2025)
